{"source": "patent US12247914B2", "about": "“Virus sensing in exhaled breath by infrared spectroscopy” (Vox Biomedical LLC, priority 2017, dated 2025)", "key": {"subjects [1]": {"system": "subjects", "assay": "Percent of impaired subjects by Standardized Field Sobriety Tests after smoking", "type": "in vivo", "settings": "about an hour after smoking cessation", "description": "(§1) The high lipid solubility of cannabinoids results in their persisting in the body for long periods of time. Even after a single administration of THC, detectable levels of THC can be found in the body for weeks or longer. […] There are three accepted laboratory methods for detecting THC in individuals that have smoked or ingested marijuana: (1) urine testing, for which passive inhalation up to 22 minutes for infrequent users can be detected for 7-10 days after inhalation, with longer periods for heavy users, (2) hair testing, with THC being detectible for up to 90 days after inhalation, and (3) blood and oral fluid testing, for which THC can be detected for 2-24 hours after use in most cases, but for up to 2 weeks in some heavy users. A detailed investigation of the relationship between time after marijuana smoking and relative subject impairment provides an estimate of the relative degree of impairment (defined under Standardized Field Sobriety Tests) as a function of time after smoking various smoke concentrations of THC is shown in Table 1."}, "[2]": {"settings": "cited from earlier work"}, "[3]": {"settings": "cited from earlier work", "remark": "listed apart in the source"}, "[4]": {"assay": "Blood THC concentration versus time after smoking", "type": "in vivo", "settings": "about an hour after smoking cessation", "description": "as §1"}, "subjects [5]": {"system": "subjects", "settings": "cited from earlier work"}, "[6]": {"settings": "dose 1.74% THC smoked, Time 1 (0-5 mins) after smoking"}, "[7]": {"settings": "dose 1.74% THC smoked, Time 2 (50-55 mins) after smoking"}, "[8]": {"settings": "dose 1.74% THC smoked, Time 3 (100-105 mins) after smoking"}, "[9]": {"settings": "dose 2.93% THC smoked, Time 1 (0-5 mins) after smoking"}, "[10]": {"settings": "dose 2.93% THC smoked, Time 2 (50-55 mins) after smoking"}, "[11]": {"settings": "dose 2.93% THC smoked, Time 3 (100-105 mins) after smoking"}}, "note": "Read-outs that look alike come from different tables or passages of the source.", "data": [{"smiles": "CCCCCc1cc(O)c2c(c1)OC(C)(C)[C@@H]1CCC(C)=C[C@@H]21", "note": "[THC, delta-9-tetrahydrocannabinol]", "values": [{"measurement": "relative degree of impairment relative to its initial value", "setting": "subjects [1]", "result": "about half"}, {"measurement": "Blood THC", "setting": "[2]; [6]", "result": 55.5, "unit": "ng/mL"}, {"measurement": "Blood THC", "setting": "[2]; [7]", "result": 6.8, "unit": "ng/mL"}, {"measurement": "Blood THC", "setting": "[2]; [8]", "result": 3.7, "unit": "ng/mL"}, {"measurement": "Blood THC", "setting": "[2]; [9]", "result": 70.6, "unit": "ng/mL"}, {"measurement": "Blood THC", "setting": "[2]; [10]", "result": 6.2, "unit": "ng/mL"}, {"measurement": "Blood THC", "setting": "[2]; [11]", "result": 3.2, "unit": "ng/mL"}, {"measurement": "time THC can be detected after use, blood and oral fluid testing", "setting": "[3]; most cases", "result": "2 to 24", "unit": "h"}, {"measurement": "time THC can be detected after use, blood and oral fluid testing", "setting": "[3]; some heavy users", "result": "up to 2 weeks"}, {"measurement": "time THC is detectible after inhalation, hair testing", "setting": "[3]; hair", "result": "up to 90 days"}, {"measurement": "time THC can be detected after inhalation, urine testing", "setting": "[3]; urine, infrequent users, passive inhalation up to 22 minutes", "result": "7 to 10", "unit": "days"}, {"measurement": "blood content of THC relative to its initial value", "setting": "[4]", "result": "~10", "unit": "%"}, {"measurement": "% impaired", "setting": "subjects [5]; [6]", "result": 23, "unit": "%"}, {"measurement": "% impaired", "setting": "subjects [5]; [7]", "result": 23, "unit": "%"}, {"measurement": "% impaired", "setting": "subjects [5]; [8]", "result": 15, "unit": "%"}, {"measurement": "% impaired", "setting": "subjects [5]; [9]", "result": 46, "unit": "%"}, {"measurement": "% impaired", "setting": "subjects [5]; [10]", "result": 41, "unit": "%"}, {"measurement": "% impaired", "setting": "subjects [5]; [11]", "result": 28, "unit": "%"}]}]}
